Experiments:
[1] = system: A2780 human ovarian carcinoma cells; assay: Co-culture killing of human ovarian carcinoma cells (Example 4); type: cell-based; conditions: pure drug, 100 μg cisplatin to 5×10^6 A2780 cells, 72 hours; FIG. 4E
Protocol: (§1) the third group of H22 mouse hepatoma cells and the third group of the A2780 human ovarian carcinoma cells are left without any treatment.
(§2) 4) half of the micro-particles taken from the above test group, and half of the cell vesicles taken from the control group are respectively co-cultured with 5×10^4 tumor cells taken from the third group of tumor cells of different types for 72 hours within a 24-pore plate, the death of the tumor cells is observed, wherein the cell vesicles that are co-cultured with the tumor cells are the cell vesicles derived from the same type of tumor cells, and the micro-particles that are co-cultured with the tumor cells are the micro-particles formed after the cell vesicles derived from the same type of tumor cells have the chemotherapeutic drug wrapped therein;

[2] = system: H22 mouse hepatoma cells; assay: Co-culture killing of mouse hepatoma cells (Example 4); type: cell-based; conditions: pure drug, 10 μg methotrexate to 5×10^6 H22 cells, 72 hours; FIG. 4B
Protocol: as §1, §2

SMILES | death of the tumor cells [1] | death of the tumor cells [2]
N.N.[Cl][Pt][Cl] [cisplatin] | there are still certain amount of tumor cells survived | –
CN(Cc1cnc2nc(N)nc(N)c2n1)c1ccc(C(=O)N[C@@H](CCC(=O)O)C(=O)O)cc1 [methotrexate] | – | there are still certain amount of tumor cells survived
